Assay results reported in patent US8653100B2 (AbbVie Inc., priority 2008, dated 2014).
Structures can show the parent of a compound that is named as a salt. Where two headings read alike, the source gives them in different places.

Experiments:
human GlyT1c = human GlyT1c (Homo sapiens (Human), UniProt P48067); test: [3H]-Glycine uptake into recombinant CHO cells expressing human GlyT1; format: cell-based; conditions: hGlyT1c_5_CHO cells, 200 nM [3H]-glycine
Summary of the method: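 hGlyT1c-expressing CHO cells plated at 20,000 cells/well and cultured 24 h; [3H]-glycine incorporation read continuously by solid-phase scintillation for up to 3 h. IC50 from four-parameter logistic fit using the linear uptake phase between 60 and 120 min.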

human GlyT1c transporter = human GlyT1c transporter (Homo sapiens (Human), UniProt P48067); test: Radioligand binding assay using recombinant CHO cell membranes expressing human GlyT1; conditions: read-out: radioligand binding Kiapp
Summary of the method: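 Competition binding of [^3H]-(R)-NPTS (0.5 nM) to CHO membranes expressing human GlyT1c (50 μg/ml protein) in pH 7.5 Hepes/NaCl buffer with 1% DMSO, 1 h at room temperature. Non-specific binding defined with 10 μM Org24598; filtration and scintillation counting, one-site fit, Ki via Cheng-Prusoff.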

[1] = examples 88-204, radioligand not specified by footnote
[2] = radioligand [3H]-(R)-NPTS (examples 1-19, 22-52, 54-87)

human GlyT1c, sequence (P48067 whole entry): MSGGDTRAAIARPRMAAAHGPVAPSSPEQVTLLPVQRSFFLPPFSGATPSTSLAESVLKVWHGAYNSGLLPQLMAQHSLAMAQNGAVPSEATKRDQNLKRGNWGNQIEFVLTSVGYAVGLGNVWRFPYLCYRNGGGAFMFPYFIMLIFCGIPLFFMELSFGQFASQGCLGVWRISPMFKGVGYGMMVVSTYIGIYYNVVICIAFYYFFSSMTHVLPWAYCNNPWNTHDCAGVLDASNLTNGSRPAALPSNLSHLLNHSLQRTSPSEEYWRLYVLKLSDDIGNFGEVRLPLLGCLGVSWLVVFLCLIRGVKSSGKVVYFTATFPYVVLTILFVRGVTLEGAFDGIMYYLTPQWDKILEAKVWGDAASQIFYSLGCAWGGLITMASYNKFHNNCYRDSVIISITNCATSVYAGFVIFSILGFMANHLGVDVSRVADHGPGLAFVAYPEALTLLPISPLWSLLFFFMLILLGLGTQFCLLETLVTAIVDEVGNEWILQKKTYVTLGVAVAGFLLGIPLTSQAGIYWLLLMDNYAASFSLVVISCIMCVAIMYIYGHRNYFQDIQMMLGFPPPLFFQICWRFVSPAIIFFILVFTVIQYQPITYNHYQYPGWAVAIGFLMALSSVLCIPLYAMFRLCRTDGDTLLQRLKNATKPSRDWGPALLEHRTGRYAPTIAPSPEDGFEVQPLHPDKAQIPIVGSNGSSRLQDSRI
human GlyT1c transporter, sequence (P48067 whole entry): as above

| Compound | IC50 (human GlyT1c) [µM] | Ki (human GlyT1c transporter; [1]) [µM] | Ki (human GlyT1c transporter; [2]) [µM] | IC50 (human GlyT1c; hydrochloride) [µM] |
| --- | --- | --- | --- | --- |
| CCCS(=O)(=O)NCCOc1ccc2c(c1)C(C(O)(c1ccc(Cl)cc1)c1ccc(Cl)cc1)NCC2 (stereo not shown) [Example 176, N-[2-({1-[Bis(4-chlorophenyl)(hydroxy)methyl]-1,2,3,4-tetrahydroisoquinolin-7-yl}oxy)ethyl]propane-1-sulfonamide hydrochloride] | ≤ 10 | ≤ 10 |  |  |
| COc1ccc(S(=O)(=O)NCCOc2ccc3c(c2)C(C2(c4ccc(Cl)cc4)CCC2)NCC3)cc1 (stereo not shown) [Example 31, N-(2-{1-[1-(4-Chloro-phenyl)-cyclobutyl]-1,2,3,4-tetrahydro-isoquinolin-7-yloxy}-ethyl)-4-methoxy-benzenesulfonamide hydrochloride] | ≤ 1 |  | ≤ 1 |  |
| NCCS(=O)(=O)NCCOc1ccc2c(c1)C(C1(c3ccc(Cl)cc3)CCC1)NCC2 (single isomer, unassigned) [Example 152, 2-Amino-N-[2-({1-[1-(4-Chlorophenyl)cyclobutyl]-1,2,3,4-tetrahydroisoquinolin-7-yl}oxy)ethyl]ethanesulfonamide dihydrochloride] | ≤ 10 | ≤ 0.1 |  |  |
| COc1cccc(S(=O)(=O)NCCOc2ccc3c(c2)C(C2(c4ccc(Cl)cc4)CCC2)NCC3)c1 (stereo not shown) [Example 19, N-(2-{1-[1-(4-Chloro-phenyl)-cyclobutyl]-1,2,3,4-tetrahydro-isoquinolin-7-yloxy}-ethyl)-3-methoxy-benzenesulfonamide hydrochloride] | ≤ 10 |  | ≤ 10 |  |
| O=S(=O)(NCCOc1cc2c(cc1F)CCNC2C1(c2ccc(Cl)cc2)CCC1)c1ccccc1 (stereo not shown) [Example 13, N-(2-{1-[1-(4-Chloro-phenyl)-cyclobutyl]-6-fluoro-1,2,3,4-tetrahydro-isoquinolin-7-yloxy}-ethyl)-benzenesulfonamide hydrochloride] | ≤ 1 |  | ≤ 1 |  |
| O=S(=O)(NCCOc1ccc2c(c1)C(C1(c3ccc(Cl)cc3)CCC1)NCC2)c1ccc(Cl)nc1 (stereo not shown) [Example 29, 6-Chloro-pyridine-3-sulfonic acid (2-{1-[1-(4-chloro-phenyl)-cyclobutyl]-1,2,3,4-tetrahydro-isoquinolin-7-yloxy}-ethyl)-amide hydrochloride] | ≤ 1 |  | ≤ 1 |  |
| O=S(=O)(Cc1ccccc1)NCCOc1ccc2c(c1)C(C1(c3ccc(Cl)cc3)CCC1)NCC2 (stereo not shown) [Example 32, N-(2-{1-[1-(4-Chloro-phenyl)-cyclobutyl]-1,2,3,4-tetrahydro-isoquinolin-7-yloxy}-ethyl)-C-phenyl-methanesulfonamide hydrochloride] | ≤ 10 |  | ≤ 10 |  |
| NCCNS(=O)(=O)CCCOc1ccc2c(c1)C(C1(c3ccc(Cl)cc3)CCC1)NCC2 (stereo not shown) [Example 130, N-(2-Aminoethyl)-3-({1-[1-(4-chlorophenyl)cyclobutyl]-1,2,3,4-tetrahydroisoquinolin-7-yl}oxy)propane-1-sulfonamide dihydrochloride] | ≤ 100 | ≤ 10 |  |  |
| O=S(=O)(NCCOc1ccc2c(c1)C(C1(c3ccc(Cl)cc3)CCC1)NCC2)c1ccc(-c2ccon2)s1 (stereo not shown) [Example 22, 5-Isoxazol-3-yl-thiophene-2-sulfonic acid (2-{1-[1-(4-chloro-phenyl)-cyclobutyl]-1,2,3,4-tetrahydro-isoquinolin-7-yloxy}-ethyl)-amide hydrochloride] | ≤ 10 |  | ≤ 100 |  |
| O=S(=O)(CCCOc1ccc2c(c1)C(C1(c3ccc(Cl)cc3)CCC1)NCC2)N1CCNCC1 (stereo not shown) [Example 133, 1-[1-(4-Chlorophenyl)cyclobutyl]-7-[3-(piperazin-1-ylsulfonyl)propoxy]-1,2,3,4-tetrahydroisoquinoline dihydrochloride] | ≤ 10 | ≤ 10 |  |  |
| O=S(=O)(NCCOc1ccc2c(c1)C(C1(c3cccc(F)c3)CCC1)NCC2)c1cccnc1 (stereo not shown) [Example 101, N-[2-({1-[1-(3-fluorophenyl)cyclobutyl]-1,2,3,4-tetrahydroisoquinolin-7-yl}oxy)ethyl]pyridine-3-sulfonamide dihydrochloride] | ≤ 1 | ≤ 0.1 |  |  |
| O=C(NCCOc1ccc2c(c1)C(C1(c3ccc(Cl)cc3)CCC1)NCC2)c1ccc(Cl)cc1Cl (stereo not shown) [Example 1, 2,4-Dichloro-N-(2-{1-[1-(4-chloro-phenyl)-cyclobutyl]-1,2,3,4-tetrahydro-isoquinolin-7-yloxy}-ethyl)-benzamide] | ≤ 10 |  | ≤ 10 |  |
| COCCNS(=O)(=O)CCCOc1ccc2c(c1)C(C1(c3ccc(Cl)cc3)CCC1)NCC2 (stereo not shown) [Example 135, 3-({1-[1-(4-Chlorophenyl)cyclobutyl]-1,2,3,4-tetrahydroisoquinolin-7-yl}oxy)-N-(2-methoxyethyl)propane-1-sulfonamide hydrochloride] | ≤ 100 | ≤ 10 |  |  |
| CC(C)CS(=O)(=O)NCCOc1ccc2c(c1)C(C1(c3ccc(Cl)cc3)CCC1)NCC2 (stereo not shown) [Example 8, 2-Methyl-propane-1-sulfonic acid (2-{1-[1-(4-chloro-phenyl)-cyclobutyl]-1,2,3,4-tetrahydro-isoquinolin-7-yloxy}-ethyl)-amide hydrochloride] | ≤ 0.1 |  | ≤ 0.1 |  |
| CCNCCCS(=O)(=O)NCCOc1ccc2c(c1)C(C1(c3ccc(Cl)cc3)CCC1)NCC2 (stereo not shown) [Example 187, N-[2-({1-[1-(4-Chlorophenyl)cyclobutyl]-1,2,3,4-tetrahydroisoquinolin-7-yl}oxy)ethyl]-3-(ethylamino)propane-1-sulfonamide] | ≤ 10 | ≤ 10 |  |  |
| CCCS(=O)(=O)N1CCN(c2cc3c(cc2OC)C(C2(c4ccc(Cl)cc4)CCC2)N(S(=O)(=O)CCC)CC3)CC1 (stereo not shown) [Example 84, 1-[1-(4-Chlorophenyl)cyclobutyl]-7-methoxy-2-(propylsulfonyl)-6-[4-(propylsulfonyl)-piperazin-1-yl]-1,2,3,4-tetrahydroisoquinoline] | ≤ 100 |  | ≤ 10 |  |
| O=S(=O)(NCCOc1ccc2c(c1)C(C1(c3ccc(Cl)cc3)CCC1)NCC2)c1cccnc1 (stereo not shown) [Example 10, Pyridine-3-sulfonic acid (2-{1-[1-(4-chloro-phenyl)-cyclobutyl]-1,2,3,4-tetrahydro-isoquinolin-7-yloxy}-ethyl)-amide hydrochloride] |  |  | ≤ 0.1 | ≤ 0.1 |
| O=S(=O)(NCCOc1ccc2c(c1)C(C1(c3ccc(Cl)cc3)CCC1)NCC2)C1CC1 (stereo not shown) [Example 28, Cyclopropanesulfonic acid (2-{1-[1-(4-chloro-phenyl)-cyclobutyl]-1,2,3,4-tetrahydro-isoquinolin-7-yloxy}-ethyl)-amide hydrochloride] | ≤ 0.1 |  | ≤ 0.1 |  |
| CC(C)NCCCS(=O)(=O)NCCOc1ccc2c(c1)C(C1(c3ccc(Cl)cc3)CCC1)NCC2 (stereo not shown) [Example 197, N-[2-({1-[1-(4-Chlorophenyl)cyclobutyl]-1,2,3,4-tetrahydroisoquinolin-7-yl}oxy)ethyl]-3-(propan-2-ylamino)propane-1-sulfonamide (2E)-but-2-enedioate] | ≤ 100 | ≤ 10 |  |  |
| CC(C)NS(=O)(=O)CCCOc1ccc2c(c1)C(C1(c3ccc(Cl)cc3)CCC1)NCC2 (stereo not shown) [Example 117, 3-({1-[1-(4-Chlorophenyl)cyclobutyl]-1,2,3,4-tetrahydroisoquinolin-7-yl}oxy)-N-(propan-2-yl)propane-1-sulfonamide hydrochloride] | ≤ 10 | ≤ 1 |  |  |
| O=S(=O)(NCCOc1ccc2c(c1)C(C1(c3cccc(F)c3)CCC1)NCC2)c1cccs1 (stereo not shown) [Example 106, N-[2-({1-[1-(3-Fluorophenyl)cyclobutyl]-1,2,3,4-tetrahydroisoquinolin-7-yl}oxy)ethyl]thiophene-2-sulfonamide hydrochloride] | ≤ 10 | ≤ 1 |  |  |
| CN(C)CCNS(=O)(=O)CCCOc1ccc2c(c1)C(C1(c3ccc(Cl)cc3)CCC1)NCC2 (stereo not shown) [Example 132, 3-({1-[1-(4-Chlorophenyl)cyclobutyl]-1,2,3,4-tetrahydroisoquinolin-7-yl}oxy)-N-[2-(dimethylamino)ethyl]propane-1-sulfonamide dihydrochloride] | ≤ 10 | ≤ 10 |  |  |
| O=S(=O)(NCCOc1ccc2c(c1)C(C1(c3ccc(Cl)cc3)CCC1)NCC2)c1cccs1 (stereo not shown) [Example 17, Thiophene-2-sulfonic acid (2-{1-[1-(4-chloro-phenyl)-cyclobutyl]-1,2,3,4-tetrahydro-isoquinolin-7-yloxy}-ethyl)-amide hydrochloride] | ≤ 0.1 |  | ≤ 1 |  |
| O=S(=O)(NCCOc1ccc2c(c1)C(C1(c3ccc(Cl)cc3)CCC1)NCC2)c1ccccc1 (stereo not shown) [Example 62, N-(2-{1-[1-(4-Chloro-phenyl)-cyclobutyl]-1,2,3,4-tetrahydro-isoquinolin-7-yloxy}-ethyl)-benzenesulfonamide hydrochloride] | ≤ 1 |  | ≤ 1 |  |
| CCCS(=O)(=O)NCCOc1ccc2c(c1)C(C(C)c1ccc(Cl)cc1)NCC2 (stereo not shown) [Example 145, N-[2-({1-[1-(4-Chlorophenyl)ethyl]-1,2,3,4-tetrahydroisoquinolin-7-yl}oxy)ethyl]propane-1-sulfonamide hydrochloride] | ≤ 0.1 | ≤ 0.1 |  |  |
| CC(C)(C)OC(=O)NCCNS(=O)(=O)CCCOc1ccc2c(c1)C(C1(c3ccc(Cl)cc3)CCC1)NCC2 (stereo not shown) [Example 126, tert-Butyl [2-({[3-({1-[1-(4-chlorophenyl)cyclobutyl]-1,2,3,4-tetrahydroisoquinolin-7-yl}oxy)propyl]sulfonyl}amino)ethyl]carbamate] | ≤ 10 | ≤ 10 |  |  |
